According to patent US7396848B1, “Neurotrophin production/secretion promoting agent” (Takeda Pharmaceutical Company Limited, priority 2000, dated 2008):

Experiments:
[1] = test system: NGF; test: NGF production/secretion promoting activity in cultured Schwann cells (enzyme immunoassay of culture fluid); type: cell-based, SD rats; conditions: 24 hours, concentrations of 10^−4 M to 10^−8 M, result in words
Description: Schwann cells were prepared by subjecting the dorsal spinal root ganglion collected from 10 newborn SD rats to enzyme treatment using 0.25% trypsin containing 0.01% deoxyribonuclease (DNase, produced by Sigma), followed by cloning from the cell group obtained. […]
The culture fluid obtained in each run of Reference Example 1A was recovered and assayed for the neurotrophin content therein. […] After washing, 30 μl of 4-methylumbelliferyl-β-D-galactoside (produced by Sigma) (10 μg/μl) was added to the substrate, the reaction was allowed to proceed at room temperature for 4 hours and then terminated by addition of 130 μl of 0.1 M glycine-sodium hydroxide buffer (pH 10.3), and the fluorescent intensity of the 4-methylumbelliferone produced was determined (Ex: 360 nm; Em: 450 nm). The amount of NGF was calculated based on a standard curve and expressed in terms of relative multiplicity in relation to the amount of NGF (control) produced and secreted by cells treated in the same manner without adding the test compound. […]

[2] = test system: BDNF; test: BDNF production/secretion promoting activity in cultured Schwann cells (enzyme immunoassay of culture fluid); type: cell-based, SD rats; conditions: 24 hours, concentrations of 10^−4 M to 10^−8 M, result in words

Row | SMILES | melting point [°C] | other results
1 | COc1ccccc1OCCCc1oc(-n2ccnc2C)nc1-c1ccc(Cl)cc1 [Compound (1), 4-(4-chlorophenyl)-5-[3-(2-methoxyphenoxy)propyl]-2-(2-methyl-1-imidazolyl)oxazole] |  | NGF production/secretion promoting activity [1]: excellent; BDNF production/secretion promoting activity [2]: excellent
2 | CCOC(=O)CCCc1sc(N)nc1-c1ccc(Cl)cc1 [Example 22, ethyl 2-amino-4-(4-chlorophenyl)-5-thiazolebutanoate] | 114 to 115 | 
3 | Cc1nccn1-c1nc(-c2ccc(Cl)cc2)c(CCCCO)s1 [Example 24, 4-(4-chlorophenyl)-2-(2-methyl-1-imidazolyl)-5-thiazolebutanol] | 98 to 99 | 
4 | COc1ccccc1OCCCc1oc(N2CCOCC2)nc1-c1ccc(Cl)cc1 [Example 39, 4-(4-chlorophenyl)-2-(4-morpholinyl)-5-[3-(2-methoxyphenoxy)propyl]oxazole] | 81 to 82 | 
5 | CCOC(=O)C1CCN(c2nc(-c3ccc(Cl)cc3)c(CCCOc3ccccc3OC)o2)CC1 [Example 40, ethyl N-[4-(4-chlorophenyl)-5-[3-(2-methoxyphenoxy)propyl]-2-oxazolyl]isonipecotate] | 80 to 81 | 
6 | COc1ccccc1OCCCc1oc(-n2cnc(-c3ccccc3)c2-c2ccccc2)nc1-c1ccc(Cl)cc1 [Example 42, 4-(4-chlorophenyl)-2-(4,5-diphenyl-1-imidazolyl)-5-[3-(2-methoxyphenoxy)propyl]oxazole] | 118 to 119 | 
7 | CCOC(=O)c1nccn1-c1nc(-c2ccc(Cl)cc2)c(CCCOc2ccccc2OC)o1 [Example 69, ethyl 1-[4-(4-chlorophenyl)-5-[3-(2-methoxyphenoxy)propyl]-2-oxazolyl]imidazole-2-carboxylate] | 90 to 91 | 
8 | CCCCCCCCCCCc1nccn1-c1nc(-c2ccc(Cl)cc2)c(CCCOc2ccccc2OC)o1 [Example 84, 4-(4-chlorophenyl)-5-[3-(2-methoxyphenoxy)propyl]-2-(2-undecyl-1-imidazolyl)oxazole] | 53 to 54 | 
9 | Cc1nccn1-c1nc(-c2ccc(Cl)s2)c(CCCCO)o1 [Example 99, 4-(5-chloro-2-thienyl)-2-(2-methyl-1-imidazolyl)-5-oxazolebutanol] | 77 to 79 | 
10 | Cc1nccn1-c1nc(-c2ccc(F)cc2)c(CCCCO)o1 [Example 102, 4-(4-fluorophenyl)-2-(2-methyl-1-imidazolyl)-5-oxazolebutanol] | 97 to 98 | 
11 | COC(=O)CCc1oc(-n2ccnc2C)nc1-c1ccc(C(F)(F)F)cc1 [Example 116, methyl 2-(2-methyl-1-imidazolyl)-4-(4-trifluoromethylphenyl)-5-oxazolepropionate] | 94 to 95 | 
12 | COC(=O)CCc1oc(-n2ccnc2C)nc1-c1ccc(Cl)c(Cl)c1 [Example 117, methyl 4-(3,4-dichlorophenyl)-2-(2-methyl-1-imidazolyl)-5-oxazolepropionate] | 116 to 117 | 
13 | Cc1nccn1-c1nc(-c2ccc(C(F)(F)F)cc2)c(CCCO)o1 [Example 118, 2-(2-methyl-1-imidazolyl)-4-(4-trifluoromethylphenyl)-5-oxazolepropanol] | 127 to 129 | 
14 | Cc1nccn1-c1nc(-c2ccc(Cl)c(Cl)c2)c(CCCO)o1 [Example 119, 4-(3,4-dichlorophenyl)-2-(2-methyl-1-imidazolyl)-5-oxazolepropanol] | 140 to 141 | 

Now from value to compound, other results behind:

Row | melting point [°C] | SMILES | other results
15 | 113 to 114 | Cc1ccccc1OCCCc1oc(-n2ccnc2)nc1-c1ccc(Cl)cc1 [Example 55, 4-(4-chlorophenyl)-2-(1-imidazolyl)-5-[3-(2-methylphenoxy)propyl]oxazole] | 
16 | 91 to 92 | CCc1nccn1-c1nc(-c2ccc(Cl)cc2)c(CCCOc2ccccc2C)o1 [Example 56, 4-(4-chlorophenyl)-2-(2-ethyl-1-imidazolyl)-5-[3-(2-methylphenoxy)propyl]oxazole] | 
17 | 78 to 79 | CCc1nccn1-c1nc(-c2ccc(Cl)cc2)c(CCCOc2ccccc2OC)o1 [Example 57, 4-(4-chlorophenyl)-2-(2-ethyl-1-imidazolyl)-5-[3-(2-methoxyphenoxy)propyl]oxazole] | 
18 | 110 to 111 | Cc1nccn1-c1nc(-c2ccc(Cl)cc2)c(CCCOc2ccccc2O)o1 [Example 61, 4-(4-chlorophenyl)-5-[3-(2-hydroxyphenoxy)propyl]-2-(2-methyl-1-imidazolyl)oxazole] | 
19 | 103 to 104 | Cc1cc(C)n(-c2nc(-c3ccc(Cl)cc3)c(CCCOc3ccccc3C)o2)n1 [Example 72, 4-(4-chlorophenyl)-2-(3,5-dimethyl-1-pyrazolyl)-5-[3-(2-methylphenoxy)propyl]oxazole] | 
20 | 89 to 90 | CCCc1nccn1-c1nc(-c2ccc(Cl)cc2)c(CCCOc2ccccc2OC)o1 [Example 83, 4-(4-chlorophenyl)-5-[3-(2-methoxyphenoxy)propyl]-2-(2-propyl-1-imidazolyl)oxazole] | 
21 | 119 to 120 | Cc1nccn1-c1nc(-c2ccc(Cl)cc2)c(CCCOc2ccccc2CCCO)o1 [Example 93, 4-(4-chlorophenyl)-5-[3-(2-(3-hydroxypropyl)phenoxy)propyl]-2-(2-methyl-1-imidazolyl)oxazole] | 
22 | 184 to 185 | Cc1nccn1-c1nc(-c2ccc(Cl)cc2)c(CCCOc2ccccc2CCC(=O)O)o1 [Example 94, 3-[2-[3-[4-(4-chlorophenyl)-2-(2-methyl-1-imidazolyl)-5-oxazolyl]propoxy]phenyl]propionic acid] | 
23 | 112 to 113 | Cc1ccccc1OCCCc1sc(-n2ccnc2C)nc1-c1ccc(Cl)cc1 [Example 96, 4-(4-chlorophenyl)-2-(2-methyl-1-imidazolyl)-5-[3-(2-methylphenoxy)propyl]thiazole] | 
24 | 115 to 116 | Cc1cccc(Cl)c1CCCOc1oc(-n2ccnc2C)nc1-c1ccc(Cl)cc1 [Example 109, 5-[3-(2-chloro-6-methylphenyl)propyloxy]-4-(4-chlorophenyl)-2-(2-methyl-1-imidazolyl)oxazole] | 
25 | 175 to 176 | Cc1cc(O)ccc1OCCCc1oc(-n2ccnc2C)nc1-c1ccc(Cl)cc1 [Example 113, 4-[3-[4-(4-chlorophenyl)-2-(2-methyl-1-imidazolyl)-5-oxazolyl]propyloxy]-3-methylphenol] | 
